# Reference: PubChem BioAssay AID602279 (Broad Institute, 2012)
# Active and inactive are the calls of the source.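 How the source made its calls: active means fitted curve reaches 40% growth rescue activation at or below the top valid tested concentration; inconclusive means flat fit between 30 and 70%, or poor fit quality; inactive means activity opposite to the expected rise, and the rest.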
# Assays:
# [1] = tested on: S. cerevisiae alpha-synuclein toxicity rescue, OD600 growth, 24 h; experiment: activators protecting yeast from synuclein toxicity – S. cerevisiae, OD600, dry powder, dose response (AID 602279)
# [2] = as above; conditions: S. cerevisiae alpha-synuclein toxicity rescue, OD600 growth, 24 h; at 26 µM (top of the series)
Compound,AC40 [1],growth rescue activation [2]
Fc1cc(NCc2ccccc2)nc(NCc2ccccc2)n1,> 26 µM (inactive),–
O=c1c2ccccc2[nH]c(=S)n1CCC1=CCCCC1,–,18.9% (inactive)
Cc1ccccc1CSc1nsc(N)n1,> 26 µM (inactive),–
CC(C)c1ccc(C2NC(=O)c3ccccc3O2)cc1 (centres undefined),> 26 µM (inactive),–
